Columns and labels:
[1] = test system: PC43-10 cells (hRFC); conditions: read-out: IC50 growth inhibition PC43-10; cited from earlier work
[2] = target: FRβ (Homo sapiens, UniProt P14207); test: FR binding assay, competition with [3H]folic acid on D4 cells; conditions: D4 CHO cells, pH 7.4, [3H]folic acid 50 nM, 0°C; Figure 3, in words
[3] = target: FRα (Homo sapiens, UniProt P15328); test: FR binding assay, competition with [3H]folic acid on RT16 cells; conditions: RT16 CHO cells, pH 7.4, [3H]folic acid 50 nM, 0°C; Figure 3, in words
Chain of FRα (P15328 25-257): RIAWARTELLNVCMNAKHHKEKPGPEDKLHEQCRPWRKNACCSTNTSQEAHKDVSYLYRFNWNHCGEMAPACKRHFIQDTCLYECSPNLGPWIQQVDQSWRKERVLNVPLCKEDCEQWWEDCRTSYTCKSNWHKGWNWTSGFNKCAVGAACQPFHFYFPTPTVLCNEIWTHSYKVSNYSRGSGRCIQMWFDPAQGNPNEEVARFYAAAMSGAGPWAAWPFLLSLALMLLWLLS

[4] = test system: KB human nasopharyngeal carcinoma cells (hRFC/FRα/hPCFT); test: Growth inhibition assay, KB human tumor cells; conditions: 96 h, read-out: IC50 growth inhibition KB

Chain of FRβ (P14207 17-255): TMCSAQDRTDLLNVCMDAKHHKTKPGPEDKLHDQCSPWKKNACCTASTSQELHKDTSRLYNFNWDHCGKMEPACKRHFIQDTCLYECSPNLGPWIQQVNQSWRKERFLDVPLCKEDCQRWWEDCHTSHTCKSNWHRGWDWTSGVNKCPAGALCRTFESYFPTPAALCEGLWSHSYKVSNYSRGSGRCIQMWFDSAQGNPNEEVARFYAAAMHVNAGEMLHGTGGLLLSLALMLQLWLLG

Compound	IC50 [4] [µM]	Relative binding affinity to FRα (folic acid = 1.0) [3]	also measured
Nc1nc2[nH]c(CCCCc3ccc(C(=O)N[C@@H](CCC(=O)O)C(=O)O)cc3)cc2c(=O)[nH]1 [2b]			IC50 [1]: > 1 µM
Nc1nc2[nH]c(CCCCCCCCC(=O)N[C@@H](CCC(=O)O)C(=O)O)cc2c(=O)[nH]1 [3d, (S)-2-(9-(2-Amino-4-oxo-4,7-dihydro-3H-pyrrolo[2,3-d]pyrimidin-6-yl)nonanamido)pentanedioic acid]		approximating those for compounds 2a and 2b	Relative binding affinity to FRβ (folic acid = 1.0) [2]: approximating those for compounds 2a and 2b
Nc1nc2[nH]c(CCCCCCCCC(=O)O)cc2c(=O)[nH]1 [7h, 9-(2-Amino-4-oxo-4,7-dihydro-3H-pyrrolo[2,3-d]pyrimidin-6-yl)nonanoic acid]	> 1	detectable binding	

Second part, led by results:

IC50 [4] [µM]	Compound	Relative binding affinity to FRα (folic acid = 1.0) [3]	also measured
> 1	Nc1nc2[nH]c(CCCCCC(=O)O)cc2c(=O)[nH]1 [7e, 6-(2-Amino-4-oxo-4,7-dihydro-3H-pyrrolo[2,3-d]pyrimidin-6-yl)hexanoic acid]		
> 1	Nc1nc2[nH]c(CCCCCCC(=O)O)cc2c(=O)[nH]1 [7f, 7-(2-Amino-4-oxo-4,7-dihydro-3H-pyrrolo[2,3-d]pyrimidin-6-yl)heptanoic acid]		
> 1	Nc1nc2[nH]c(CCCCCCCC(=O)O)cc2c(=O)[nH]1 [7g, 8-(2-Amino-4-oxo-4,7-dihydro-3H-pyrrolo[2,3-d]pyrimidin-6-yl)octanoic acid]		
